Consider 5 compounds from US11634666B2, “Methods for spore removal comprising a polysorbate surfactant and cationic antimicrobial mixture” (3M INNOVATIVE PROPERTIES COMPANY, priority 2015, dated 2023).

The test deals with C. sporogenes spores ATCC 3584. In words: In-vitro experiment to evaluate ability of test formulations to remove spores from skin like surfaces (Vitro-Skin, finger bag collection method). The following applies: for log reduction of spores (in words): higher concentrations (1%). The source says: The in-vitro method was designed to evaluate the removal of microbes from skin using a synthetic skin material from the cosmetic industry, Vitro-skin from IMS inc, Portland METhis method enables rapid screening of formulations for their propensity to promote release of microbes from skin and may be predictive of in-vivo activity.
The following materials were utilized. C. sporogenes spores ATCC 3584˜1.0×10^8 CFU/ml; Triton-X 100 sampling buffer (pH 7.4) Filter Sterilized: 0.4 g KH2PO4, 10.1 g Na2HPO4, 1 g Triton-X 100, and 1 L dH2O; D/E neutralizing broth; Fingers from disposable polyethylene gloves (VWR 32915-268); Sterile dH2O (WFI quality water); 3M AC Petrifilm; and 5 ml Falcon tubes; 1.5 ml EPI Centrifuge tubes; Petri Dishes; Vitro-Skin IMS Inc.; and double-sided tape.
The method included the following. Punched-out specified number of Vitro-Skin samples using the ¾″ punch. Attached punch-out Vitro-Skin samples to a Petri-dish or any other sterile flat surface using double-sided tape. Contaminated the Vitro-Skin samples accordingly with 10 μl of spores/spore prep (˜1×10^6 CFU/Sample). Used the pipette tip to spread spores over the surface and used a new pipette tip for each sample. Allowed the samples to dry (˜40 minutes). Placed three samples directly into separate finger bags containing 3 ml of triton-x 100 sampling solution or D/E neutralizing broth if one of the samples going to be tested contains antimicrobials. Used the “Finger bag collection method” below for each of the three recovery controls.
The Finger bag collection method was carried out as follows. First, a finger bag was cut from disposable gloves.
For the controls: Filled the finger bag with 3 ml of sampling solution. Placed contaminated Vitro-Skin sample into the finger bag containing sampling solution. Massaged finger bag for 1 minute using thumb and index finger. Removed aliquot of fluid from the finger bag and place into an appropriately labeled 1.5 ml centrifuge tube.
For the tested samples: Placed contaminated Vitro-Skin sample into a finger bag containing 3 ml of appropriate test solution. Massage in finger bag for 20 seconds. Removed the Vitro-Skin sample from the finger bag and place into a new finger bag containing 3 ml of sampling solution (Triton x-100 glove juice buffer or D/E neutralizing broth). Collected sample by using the finger bag collection method noted above. Repeat “Placed contaminated vitro-skin sample . . . ” to “Collected sample . . . ” for each of the test solutions.
For best statistical data each test solution was repeated 3 times. Heat treated appropriately labeled 1.5 ml centrifuge tubes containing aliquots of solution for 20 min at 80 C. Serially diluted samples in butterfield's buffer and plate 10^-1 to 10^-4 dilution on AC Petrifilm. Heat shocked, diluted, and plated spore stock day of experiment. Incubated Petrifilm in an anaerobic chamber at 37 C for 20-24 hours. Counted plates and analyzed data.

[1] abbreviates: Example 3, added to water, all concentrations.

Turning to `Cc1cc(O)cc(C)c1Cl` [PCMX, 4-chloro-3,5-dimethylphenol], the “log reduction of spores (in words)” value (Example 3) is “good log reduction of spores”. As for `Oc1cc(Cl)ccc1Oc1ccc(Cl)cc1Cl` [Triclosan, 5-chloro-2-(2,4-dichlorophenoxy)phenol], the “log reduction of spores (in words)” value (Example 3) is given as “good log reduction of spores”.

`N=C(NCCCCCCNC(=N)NC(=N)Nc1ccc(Cl)cc1)NC(=N)Nc1ccc(Cl)cc1.O=C(O)[C@H](O)[C@@H](O)[C@H](O)[C@H](O)CO.O=C(O)[C@H](O)[C@@H](O)[C@H](O)[C@H](O)CO` [chlorhexidine gluconate, Chlorhexidine gluconate]: the “spore removal (in words)” value is, setting by setting: under setting [1], “poor spore removal”; (Example 6, Tables 6a/6b) “poor spore removal”. On to `CCCCCCCCN=c1ccn(CCCCCCCCCCn2ccc(=NCCCCCCCC)cc2)cc1.Cl.Cl` [octinidine, N,N′-(decane-1,10-diyldipyridin-1-yl-4-ylidene)dioctan-1-amine dihydrochloride], for which the “spore removal (in words)” value (Example 3, higher concentration) is given as “unaffected”. For the compound benzalkonium chloride, the “spore removal (in words)” value under setting [1] is given as “poor spore removal”.
